Paper PMC9396645 (Frontiers in Chemistry, 2022)

Columns and labels:
PSMA = target: T1, PSMA (Homo sapiens, UniProt Q04609); assay: Competitive cell binding assay on C4-2 cells vs ^68Ga-PSMA-10; details: non-labeled compounds, radioligand ^68Ga-PSMA-10 0.75 nM, 37°C 45 min, mean ± SD (n = 3)
T1 construct: host or cells: C4-2 cells (subline of LNCaP)
Description: The competition binding assay was performed using the cell line C4-2 (ATCC® CRL-3314™; American Type Culture Collection). This is a subline of the PSMA-positive cell line LNCaP. The cells were cultivated in RPMI 1640 medium (PAN-Biotech), supplemented with 10% fetal bovine serum and 2 mM L-glutamine (PAN-Biotech) at 37°C and 5% CO2 in a humidified atmosphere.
A 96-well MultiScreenHTS-DV filter plate (Merck Millipore) was incubated at room temperature with 100 µL of a 1% bovine serum albumin (BSA) solution in PBS (phosphate-buffered saline) per well for 30 min. After removal of PBS/BSA solution, 1 × 10^5 C4-2 cells in 50 µL of Opti-MEM medium (Gibco, Life Technologies) were seeded into each well. […] All non-labeled compounds were dissolved in Opti-MEM and added as competing ligands at several concentrations: 0, 0.5, 1, 2.5, 5, 10, 25, 50, 100, 500, 1,000, and 5,000 nM. After incubation at 37°C for 45 min, the cells were washed twice with PBS at 4°C. The radioactivity in the supernatant and that accumulated by the cells was determined with a γ-counter (Packard Cobra Auto-gamma). Using Graph Pad Prism 5.01 software, a nonlinear regression algorithm was calculated to obtain the 50% inhibitory concentration (IC50). These experiments were performed in quadruplicate.

C4-2 cells = assay: Internalization efficiency / specific cell uptake in C4-2 cells; assay type: cell-based, human; details: for Specific cell surface / Specific lysate (internalization): ^68Ga-labeled compounds 30 nM, 45 min, 37°C, specificity by 2-PMPA 500 μM, mean ± SD (n = 3)
Description: The specific internalization ratio was determinated in 24-well plates. The plates were previously coated with 0.1% poly-L-lysine in PBS for 20 min and washed with PBS once. C4-2 cells (10^5 cells per analysis) were added to each well and equilibrated overnight. The cells were incubated for 45 min with 250 µL of a 30 nM solution of the ^68Ga-labeled compounds either in a water bath at 37°C or on ice. The PSMA-receptor-blocking agent 2-(phosphonomethyl)pentanedioic acid (2-PMPA; 500 μM; Axxora) was used to verify the specificity of the cellular uptake of the novel compounds. The cells were washed thrice (using 1 ml of ice-cold PBS), followed by an incubation with 0.5 ml of a glycine solution (50 mM in HCl at a pH of 2.8) for 5 min, washed once with 1 ml of ice-cold PBS, and finally lysed with 0.5 ml of 0.3 M NaOH. The lysate was collected, and the radioactivity was measured in a gamma-counter. Triplicate measurements were performed for all experiments.

[1] = Determination of plasma half-life in athymic nude mice; assay type: in vivo, mouse; details: athymic nude mice (n = 3), i.v. 4–6 MBq, biexponential fit, weighted overall half-life
Description: The radioligands ^68Ga-CA027 and ^68Ga-CA028 (4–6 MBq) were injected into athymic nude mice (n = 3) via the lateral tail vein. Blood (25–50 μL) was collected 2, 5, 15, 30, 45, 60, 90, and 120 min post injection via either the tail or saphenous vein, and the activity of the blood samples was determined in a γ-counter. Both procedures furnished consistent and reproducible results. The percentage of the injected dose per gram of tissue (%ID/g) was calculated, and the resulting values were plotted as a function of time. A biexponential decay curve was used as a fit function, accounting for a short blood half-life (a-phase) during the initial phase directly after injection and a longer blood half-life during the terminal phase (b-phase). The data analysis program Prism 7™ was used to determine both half-lives, t1/2-a and t1/2-b, as well as their relative contribution (in %) to the overall half-life (t1/2). Subsequently, both half-lives were weighed according to their relative contribution to the overall blood half-life t1/2. At the time of tracer injection (t = 0), it was assumed that %ID/g = 50. The injected dose at t = 0 equals 100%, divided by the total mass of blood (approximately 2 g in the case of 6‒8 weeks old mice) gives %ID/g t=0 = 50.

C4-2 tumor-bearing mice = assay: In vivo metabolite analysis by radio-HPLC of tissue extracts; design: species or system mouse; details: extracts from kidney, blood, liver and tumor of C4-2 tumor-bearing mice, 10 MBq, 0.2 nmol i.v.
Description: The metabolization of the radiolabeled tracers in vivo was studied by radio-HPLC analysis. Male nude C4-2 tumor-bearing mice (n = 3) were injected with ^177Lu-CA028 or ^177Lu-PSMA-617 (10 MBq, 0.2 nmol in approximately 100 µL of 0.9% saline) via the tail vein. Ten min post injection, blood, the liver, and the kidneys were dissected. The tissues were rinsed with ice-cold saline, blotted dry, treated with 2 mL of 0.1 M NH4OAc/EtOH (35:65), and homogenized with an Ultra-Turrax T8 (IKA Labortechnik). The samples were then centrifuged for 10 min at 12,000 × g and 4°C. For HPLC measurements, an aliquot of the supernatants was prepared by precipitation of the proteins with ACN as described above for serum stability testing. The samples were analyzed by radio-HPLC (0–100% ACN in 5 min, 2 mL/min, Monolith column, Merck). The fractions were collected every 10 s over the whole course of the chromatographic run. Subsequently, the activity of the samples was measured in a gamma-counter to reconstruct a chromatogram.

[2] = Serum stability (radio-HPLC and radio-ITLC); assay type: in vitro ADME; details: ^177Lu-labeled; for release of ^177Lu in human serum: radio-ITLC
Description: After radiolabeling of the compounds, serum stability was examined by HPLC and ITLC (instant thin-layer chromatography). 50 µL (20 MBq) of the ^177Lu-labeled ligands was added to 200 µL human serum (Sigma-Aldrich) and incubated at 37°C. At different time points (0, 2, 24, 48, and 72 h) 0.5 µL was applied onto iTLC-SG-glass microfiber chromatography paper strips (5 × 0.5 cm; Agilent Technologies) at a distance of 1 cm from the bottom. The strip was placed upright into a vial containing 120 µL of sodium citrate buffer (0.5 M, pH = 5.0). The buffer front was allowed to rise to the top. Subsequently, each strip was cut in eight equally sized pieces that were subsequently measured in a gamma-counter. For HPLC analysis, an equal volume of ACN was added to the samples; under these conditions, the serum proteins precipitated. The samples were centrifuged for 10 min at 12,000 × g. Following the separation of the pellet and the supernatant, their relative activity (%) was determined. An aliquot of the supernatant was analyzed by radio-HPLC (0–100% ACN in 5 min, Monolith column, Merck), with a flow rate of 2 mL/min.

T1 sequence (Q04609 whole entry): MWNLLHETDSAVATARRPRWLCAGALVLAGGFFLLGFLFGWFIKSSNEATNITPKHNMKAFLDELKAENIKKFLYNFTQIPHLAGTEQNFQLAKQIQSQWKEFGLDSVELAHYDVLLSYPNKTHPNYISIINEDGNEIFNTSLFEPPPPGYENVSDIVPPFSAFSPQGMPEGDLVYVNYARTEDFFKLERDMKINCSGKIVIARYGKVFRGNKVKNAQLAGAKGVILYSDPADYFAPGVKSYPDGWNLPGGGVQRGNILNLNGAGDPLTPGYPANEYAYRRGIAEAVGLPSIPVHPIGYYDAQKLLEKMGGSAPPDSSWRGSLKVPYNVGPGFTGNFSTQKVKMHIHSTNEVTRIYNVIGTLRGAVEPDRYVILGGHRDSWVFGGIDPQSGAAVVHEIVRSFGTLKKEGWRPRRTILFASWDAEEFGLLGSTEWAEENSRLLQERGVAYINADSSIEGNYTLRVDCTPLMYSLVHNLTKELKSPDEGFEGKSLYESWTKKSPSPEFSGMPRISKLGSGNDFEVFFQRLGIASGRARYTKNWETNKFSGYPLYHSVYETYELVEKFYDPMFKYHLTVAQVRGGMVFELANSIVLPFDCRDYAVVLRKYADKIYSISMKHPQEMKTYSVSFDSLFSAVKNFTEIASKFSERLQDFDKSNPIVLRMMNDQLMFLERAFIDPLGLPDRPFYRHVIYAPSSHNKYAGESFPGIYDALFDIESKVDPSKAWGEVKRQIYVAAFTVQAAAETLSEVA

SMILES | Ki (PSMA) [nM] | Specific cell surface (C4-2 cells) [%IA/10^6cells] | Specific lysate (internalization) (C4-2 cells) [%IA/10^6 cells] | release of ^177Lu in human serum ([2]; 37°C) | other results
O=C([O-])CN1CCN(CC(=O)[O-])CCN(Cc2ccc(C(=O)NCCCCC(NC(=O)NC(CCC(=O)O)C(=O)O)C(=O)O)cc2)CCN(CC(=O)[O-])CC1.[68Ga+3] (stereo not drawn) [^68Ga-CA027] | – | – | – | – | plasma half-life t1/2 [1]: 2.7 min
O=C([O-])CN1CCN(CC(=O)[O-])CCN(Cc2ccc(C(=O)NCC3CCC(C(=O)NC(Cc4ccc5ccccc5c4)C(=O)NCCCCC(NC(=O)NC(CCC(=O)O)C(=O)O)C(=O)O)CC3)cc2)CCN(CC(=O)[O-])CC1.[177Lu+3] (stereo not drawn) [^177Lu-CA028] | – | – | – | – | metabolization in vivo (radio-HPLC of extracts) (C4-2 tumor-bearing mice): activity elutes at the retention time of the intact tracer; free activity in human serum ([2]; 37°C, 'at this time point'): 40%
O=C([O-])CN1CCN(CC(=O)[O-])CCN(C(CCC(=O)NCc2ccc(NC(=S)NCC3CCC(C(=O)NC(Cc4ccc5ccccc5c4)C(=O)NCCCCC(NC(=O)NC(CCC(=O)O)C(=O)O)C(=O)O)CC3)cc2)C(=O)O)CCN(CC(=O)[O-])CC1.[177Lu+3] (stereo not drawn) [^177Lu-CA029] | – | – | – | no release | –
O=C([O-])CN1CCN(CC(=O)[O-])CCN(CC(=O)O)C(Cc2ccc(NC(=S)NCC3CCC(C(=O)NC(Cc4ccc5ccccc5c4)C(=O)NCCCCC(NC(=O)NC(CCC(=O)O)C(=O)O)C(=O)O)CC3)cc2)CN(CC(=O)[O-])CC1.[177Lu+3] (stereo not drawn) [^177Lu-CA030] | – | – | – | no release | stability in human serum ([2]; over 72 h): stable
O=C([O-])CN1CCN(CC(=O)[O-])CCN(CC(=O)NCC2CCC(C(=O)N[C@@H](Cc3ccc4ccccc4c3)C(=O)NCCCC[C@H](NC(=O)N[C@@H](CCC(=O)O)C(=O)O)C(=O)O)CC2)CCN(CC(=O)[O-])CC1.[177Lu+3] (stereo partly drawn) [^177Lu-PSMA-617, reference compound] | – | – | – | no release | metabolization in vivo (radio-HPLC of extracts) (C4-2 tumor-bearing mice): activity elutes at the retention time of the intact tracer

Continued, in another order:

Ki (PSMA) [nM] | SMILES | Specific cell surface (C4-2 cells) [%IA/10^6cells] | Specific lysate (internalization) (C4-2 cells) [%IA/10^6 cells] | release of ^177Lu in human serum ([2]; 37°C) | other results
33.8 ± 2.13 | O=C(O)CCC(NC(=O)NC(CCCCNC(=O)c1ccc(CN2CCN(CC(=O)O)CCN(CC(=O)O)CCN(CC(=O)O)CC2)cc1)C(=O)O)C(=O)O (stereo not drawn) [CA027] | 2.18 ± 0.50 | 1.70 ± 0.24 | – | –
15.2 ± 6.11 | O=C(O)CCC(NC(=O)NC(CCCCNC(=O)C(Cc1ccc2ccccc2c1)NC(=O)C1CCC(CNC(=O)c2ccc(CN3CCN(CC(=O)O)CCN(CC(=O)O)CCN(CC(=O)O)CC3)cc2)CC1)C(=O)O)C(=O)O (stereo not drawn) [CA028] | 94.12 ± 2.70 | 41.22 ± 2.72 | – | –
11 ± 4.87 | O=C(O)CCC(NC(=O)NC(CCCCNC(=O)C(Cc1ccc2ccccc2c1)NC(=O)C1CCC(CNC(=S)Nc2ccc(CNC(=O)CCC(C(=O)O)N3CCN(CC(=O)O)CCN(CC(=O)O)CCN(CC(=O)O)CC3)cc2)CC1)C(=O)O)C(=O)O (stereo not drawn) [CA029] | 46.83 ± 3.07 | 44.26 ± 3.96 | – | –
4.79 ± 1.31 | O=C(O)CCC(NC(=O)NC(CCCCNC(=O)C(Cc1ccc2ccccc2c1)NC(=O)C1CCC(CNC(=S)Nc2ccc(CC3CN(CC(=O)O)CCN(CC(=O)O)CCN(CC(=O)O)CCN3CC(=O)O)cc2)CC1)C(=O)O)C(=O)O (stereo not drawn) [CA030] | 43.46 ± 1.50 | 53.78 ± 5.45 | – | specific internalization in C4-2 cells (C4-2 cells; Table 2): 53.78 % ID/10^6 cells
